Experimental data: patent US8466200B2, “2-adamantylurea derivatives as selective 11β-HSD1 inhibitors” (Merck Patent GmbH, priority 2005, dated 2013)
Like-named read-outs stand apart in the source and are kept apart here. One block for each compound: values may come before it.

What was measured:
human 11-beta HSD1 = molecular target: T1, human 11-beta HSD1 (Homo sapiens, UniProt P28845); assay: 11 beta-HSD1 enzyme assay (HTRF cortisol), human recombinant enzyme; type: biochemical; conditions: read-out: Inhibition of human 11-beta HSD1 IC50
T1 construct: made in house; host or cells: E. coli
Description: (§1) Human recombinant 11 beta-hydroxysteroid dehydrogenase type 1 (11 beta-HSD1) and type 2 (11 beta-HSD2) enzymes were expressed in E. coli. Rat and mice liver microsome fractions were purchased from TEBU.
(§2) The 11 beta-HSD1 enzyme assay was carried out in 96 well microtiter plates in a total volume of 100 μl containing 30 mM HEPES buffer, pH 7,4 with 1 mM EDTA, substrate mixture cortisone/NADPH (200 nM/200 μM), G-6-P (1 mM) and inhibitors in serial dilutions. Reactions were initiated by addition of 10 μl 11beta-HSD1 (3 μg) from E. coli, either as microsome fractions from rat or mice liver (2.5 μg). Following mixing, the plates were shaken for 150 minutes at 37° C. The reactions were terminated with 100 Acid-18beta glycyrrhetinic stop solution. Determinations of cortisol levels in 11 beta-HSD1 preparations were monitored by HTRF (HTRF cortisol assay from C is bio international).

mouse 11-beta HSD1 = mouse 11-beta HSD1 (Mus musculus, UniProt P50172); assay: 11 beta-HSD1 enzyme assay, mice liver microsome fractions
Description: as §1, §2

rat 11-beta HSD1 = rat 11-beta HSD1 (Rattus norvegicus, UniProt P16232); assay: 11 beta-HSD1 enzyme assay, rat liver microsome fractions; type: biochemical; conditions: read-out: Inhibition of rat 11-beta HSD1 IC50
Description: as §1, §2

human 11-beta HSD2 = molecular target: T2, human 11-beta HSD2 (Homo sapiens, UniProt P80365); assay: 11 beta-HSD2 enzyme assay, human recombinant enzyme; type: biochemical; conditions: selectivity table, Example 10; read-out: Inhibition of human 11-beta HSD2 IC50
T2 construct: made in house; host or cells: E. coli
T2 sequence (P80365 1-405): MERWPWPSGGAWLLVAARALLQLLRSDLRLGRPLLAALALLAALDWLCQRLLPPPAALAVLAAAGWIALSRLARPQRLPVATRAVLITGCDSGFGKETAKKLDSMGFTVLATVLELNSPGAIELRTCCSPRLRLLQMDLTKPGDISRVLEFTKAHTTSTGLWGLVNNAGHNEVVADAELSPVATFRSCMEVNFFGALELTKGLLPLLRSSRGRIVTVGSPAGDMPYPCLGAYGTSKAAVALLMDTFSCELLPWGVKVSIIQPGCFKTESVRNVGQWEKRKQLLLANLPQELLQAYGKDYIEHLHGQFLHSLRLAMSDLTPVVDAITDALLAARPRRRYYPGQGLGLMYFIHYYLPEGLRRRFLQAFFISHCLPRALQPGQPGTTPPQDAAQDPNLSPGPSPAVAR
Excerpt: This assay was similarly applied to 11beta-HSD2, whereby cortisol, NAD, and carbenoxolon were used as the substrate, cofactor and stopping agent, respectively.

[1] = recombinant enzyme from E. coli

T1 sequence (P28845 whole entry): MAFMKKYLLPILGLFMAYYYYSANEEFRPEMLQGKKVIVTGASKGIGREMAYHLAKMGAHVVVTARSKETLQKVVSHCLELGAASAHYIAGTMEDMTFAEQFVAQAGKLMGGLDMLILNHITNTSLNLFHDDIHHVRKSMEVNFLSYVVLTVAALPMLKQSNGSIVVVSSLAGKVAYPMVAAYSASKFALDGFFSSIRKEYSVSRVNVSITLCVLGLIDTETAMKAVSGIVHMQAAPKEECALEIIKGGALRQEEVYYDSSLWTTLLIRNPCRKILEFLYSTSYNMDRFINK
rat 11-beta HSD1, sequence (P16232 whole entry): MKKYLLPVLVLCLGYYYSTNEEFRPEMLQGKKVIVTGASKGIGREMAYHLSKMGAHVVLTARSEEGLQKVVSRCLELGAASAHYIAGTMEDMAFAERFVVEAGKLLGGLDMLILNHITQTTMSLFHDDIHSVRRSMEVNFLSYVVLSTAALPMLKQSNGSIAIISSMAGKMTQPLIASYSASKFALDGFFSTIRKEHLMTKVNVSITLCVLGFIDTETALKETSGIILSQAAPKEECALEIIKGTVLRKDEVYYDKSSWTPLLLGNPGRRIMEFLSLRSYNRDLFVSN
mouse 11-beta HSD1, sequence (P50172 whole entry): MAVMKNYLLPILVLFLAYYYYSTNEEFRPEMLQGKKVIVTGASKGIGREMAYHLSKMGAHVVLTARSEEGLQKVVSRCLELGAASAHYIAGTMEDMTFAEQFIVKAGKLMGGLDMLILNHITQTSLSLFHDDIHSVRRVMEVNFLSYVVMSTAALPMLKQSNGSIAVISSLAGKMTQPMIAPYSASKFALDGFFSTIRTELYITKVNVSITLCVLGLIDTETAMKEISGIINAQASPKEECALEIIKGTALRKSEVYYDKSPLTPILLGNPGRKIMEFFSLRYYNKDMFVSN

Structure (SMILES): Cc1c(NC(=O)NC2C3CC4CC(C3)CC2C4)cccc1C(=O)O (centres unmarked) [Ex 6, 3-(3-Adamantan-2-yl-ureido)-2-methyl-benzoic acid]
- IC50 (human 11-beta HSD1; [1]): 550 nM

Structure (SMILES): Cc1cc(O)ccc1NC(=O)NC1C2CC3CC(C2)CC1C3 (centres unmarked) [Ex 7, 1-Adamantan-2-yl-3-(4-hydroxy-2-methyl-phenyl)-urea]
- melting point: 212 to 214 °C

Structure (SMILES): C[C@@H](NC(=O)NC1C2CC3CC(C2)CC1C3)c1ccccc1 (some centres unmarked) [drawing 15]
- IC50 (human 11-beta HSD1; selectivity table, Example 10): 16 nM
- IC50 (human 11-beta HSD2): > 10000 nM

Structure (SMILES): COc1ccc(NC(=O)NC2C3CC4CC(C3)CC2C4)c(C)c1 (centres unmarked) [drawing 13]
- IC50 (human 11-beta HSD1; selectivity table, Example 10): 12 nM
- IC50 (human 11-beta HSD2): > 10000 nM

Structure (SMILES): Cc1cc(OCCN2CCCCC2)ccc1NC(=O)NC1C2CC3CC(C2)CC1C3 (centres unmarked) [Ex 8, 1-Adamantan-2-yl-3-(2-methyl-4-(2-piperidin-1-yl-ethoxyl)phenyl)-urea]
- IC50 (rat 11-beta HSD1): 1460 nM
- IC50 (mouse 11-beta HSD1; read-out: Inhibition of mouse 11-beta HSD1 IC50, mice liver microsome fractions): 1240 nM

Structure (SMILES): O=C(NC1CCCC1)NC1C2CC3CC(C2)CC1C3 (centres unmarked) [drawing 14]
- IC50 (human 11-beta HSD1; selectivity table, Example 10): 370 nM
- IC50 (human 11-beta HSD2): > 10000 nM

Structure (SMILES): COc1ccc(NC(=O)NC2C3CC4CC(C3)CC2C4)c(C)c1 (centres unmarked) [Ex 1, 1-Adamantan-2-yl-3-(4-methoxy-2-methyl-phenyl)-urea]
- IC50 (human 11-beta HSD1; [1]): 15 nM
- IC50 (rat 11-beta HSD1): 190 nM
- melting point: 186 °C
- IC50 (mouse 11-beta HSD1): 97 nM

Second part, the compound after the results:

- IC50 (human 11-beta HSD1; [1]): 340 nM
Structure (SMILES): O=C(Nc1ccccc1C(F)(F)F)NC1C2CC3CC(C2)CC1C3 (centres unmarked) [Ex 1-3, 1-Adamantan-2-yl-3-(2-trifluoromethyl-phenyl)-urea]

- IC50 (human 11-beta HSD1; [1]): 2100 nM
- IC50 (mouse 11-beta HSD1): 3440 nM
Structure (SMILES): O=C(NCc1ccco1)NC1C2CC3CC(C2)CC1C3 (centres unmarked) [Ex 1-44, 1-Adamantan-2-yl-3-furan-2-ylmethyl-urea]

- IC50 (human 11-beta HSD1; [1]): 16 nM
Structure (SMILES): C[C@@H](NC(=O)NC1C2CC3CC(C2)CC1C3)c1ccccc1 (stereo partly drawn) [Ex 1-61, 1-Adamantan-2-yl-3-((R)-1-phenyl-ethyl)-urea]

- IC50 (human 11-beta HSD1; [1]): 720 nM
- IC50 (rat 11-beta HSD1): 1320 nM
Structure (SMILES): O=C(NC1C2CC3CC(C2)CC1C3)N1CCCC1 (centres unmarked) [Ex 3-3, Pyrrolidine-1-carboxylic acid adamantan-2-ylamide]

- IC50 (human 11-beta HSD1; [1]): 67 nM
Structure (SMILES): CCc1cccc(NC(=O)NC2C3CC4CC(C3)CC2C4)c1 (centres unmarked) [Ex 1-20, 1-Adamantan-2-yl-3-(3-ethyl-phenyl)-urea]

- IC50 (human 11-beta HSD1; [1]): 370 nM
- IC50 (rat 11-beta HSD1): 47 nM
- IC50 (mouse 11-beta HSD1): 355 nM
Structure (SMILES): O=C(NC1CCCC1)NC1C2CC3CC(C2)CC1C3 (centres unmarked) [Ex 1-39, 1-Adamantan-2-yl-3-cyclopentyl-urea]

- IC50 (human 11-beta HSD1; [1]): 740 nM
Structure (SMILES): Cc1cccc(CNC(=O)NC2C3CC4CC(C3)CC2C4)c1 (centres unmarked) [Ex 1-34, 1-Adamantan-2-yl-3-(3-methyl-benzyl)-urea]

- IC50 (human 11-beta HSD1; [1]): 430 nM
- IC50 (rat 11-beta HSD1): 8 nM
- IC50 (mouse 11-beta HSD1): 440 nM
Structure (SMILES): O=C(NCCc1ccccc1)NC1C2CC3CC(C2)CC1C3 (centres unmarked) [Ex 1-12, 1-Adamantan-2-yl-3-phenethyl-urea]

- IC50 (human 11-beta HSD1; [1]): 43 nM
Structure (SMILES): O=C(NCCc1cccs1)NC1C2CC3CC(C2)CC1C3 (centres unmarked) [Ex 1-16, 1-Adamantan-2-yl-3-(2-thiophen-2-yl-ethyl)-urea]

- IC50 (human 11-beta HSD1; [1]): 57 nM
Structure (SMILES): O=C(Nc1ccc2ccccc2c1)NC1C2CC3CC(C2)CC1C3 (centres unmarked) [Ex 1-23, 1-Adamantan-2-yl-3-naphthalen-2-yl-urea]

- IC50 (human 11-beta HSD1; [1]): 670 nM
Structure (SMILES): O=C(Nc1cc(Cl)nc(Cl)c1)NC1C2CC3CC(C2)CC1C3 (centres unmarked) [Ex 1-26, 1-Adamantan-2-yl-3-(2,6-dichloro-pyridin-4-yl)-urea]

- IC50 (human 11-beta HSD1; [1]): 270 nM
Structure (SMILES): COc1cc(NC(=O)NC2C3CC4CC(C3)CC2C4)cc(OC)c1 (centres unmarked) [Ex 1-7, 1-Adamantan-2-yl-3-(3,5-dimethoxy-phenyl)-urea]
